Measurements: paper PMC5053523, “In Vitro Antibacterial Activity of Rhodanine Derivatives against Pathogenic Clinical Isolates” (PLoS ONE, 2016)
Counter-ions that a name gives are not always drawn. Like-named read-outs stand apart in the source and are kept apart here.

Key:
[1] = system: vancomycin resistant enterococci (VRE) E. faecium; assay: Broth microdilution MIC/MBC, VRE E. faecium; assay type: cell-based
[2] = system: Bacillus Strains; assay: Broth microdilution MIC50/MIC90 and MIC range, Bacillus strains panel; assay type: cell-based, Bacillus spp.; details: 10 Bacillus strains
Description: (§1) The broth microdilution technique was used, followed by subculturing on agar plates that were rhodanine—free. […] The MICs reported represent the lowest concentration of each compound necessary to inhibit bacterial growth and the MBCs represent the lowest concentration required to reduce the initial bacterial inoculum by ≥ 99.9%.

[3] = system: Clostridium difficile; assay: MIC against Clostridium difficile, anaerobic broth dilution; assay type: cell-based; details: Clostridioides difficile
Experimental: Clinical isolates of C. difficile were cultured on anaerobic blood agar and incubated anaerobically using container gas pack system at 37° C for 48 hours. The colonies were then suspended in pre-reduced phosphate buffered saline (PBS) and adjusted to 0.5 McFarland standard then diluted 1:300 in pre-reduced Supplemented Brain Heart Infusion broth. The bacterial suspension was then transferred to each well of 96-well plates, the drugs were added to the first row of wells in the required concentrations and serially diluted along the plates. The plates were incubated again anaerobically using container gas pack system at 37° C for 48 hours. The (MIC) recorded was the lowest concentration of the drug showing no visible growth of the bacteria.

[4] = system: B. cereus; assay: Broth microdilution MIC/MBC, B. cereus; assay type: cell-based
Description: The broth microdilution technique was used, followed by subculturing on agar plates that were rhodanine—free.

[5] = system: Vancomycin Resistant Staphylococcus aureus (VRSA); assay: Broth microdilution MIC/MBC, VRSA; assay type: cell-based; details: VRSA
[6] = system: vancomycin resistant enterococci (VRE); assay: Broth microdilution MIC50/MIC90, VRE panel; assay type: cell-based; details: Enterococcus, VRE
[7] = system: Mycobacterium smegmatis; assay: Broth microdilution MIC/MBC, Mycobacterium smegmatis; assay type: cell-based; details: Mycolicibacterium smegmatis, ATCC14468
[8] = system: vancomycin resistant enterococci (VRE) E. faecalis; assay: Broth microdilution MIC/MBC, VRE E. faecalis; assay type: cell-based
[9] = system: B. licheniformis; assay: Broth microdilution MIC/MBC, B. licheniformis; assay type: cell-based; details: Bacillus licheniformis
[10] = system: established methicillin-resistant S. epidermidis biofilm (ATCC 35984, NRS 101); assay: Microtiter dish biofilm eradication assay (crystal violet); assay type: cell-based, Staphylococcus epidermidis; details: high concentrations (up to 8 X MIC), 24 h
Experimental: We used S. epidermidis ATCC 35984 (NRS 101), a high-slime producer isolated in septicemic patients, with colonized intravascular catheters from Tennessee, USA [10]. This strain is a multi-drug resistant strain, showing resistance to methicillin, erythromycin, kanamycin, gentamicin, clindamycin and trimethoprim. Briefly, an overnight culture of biofilm—producing MRSE was diluted 1:100 in a fresh medium containing 1% glucose in a 96-well tissue-culture treated plate. Bacteria were incubated at 37°C for 24 h to permit the formation of an adherent biofilm. The medium was removed and the biofilm was washed with PBS. Antibacterial drugs (vancomycin and linezolid) and rhodanine 2, at indicated concentration, were added and incubated again at 37°C for 24 h. Plates were washed again and biofilms were stained with 0.1% (wt/vol) crystal violet. Plates were washed with PBS, air-dried and biofilm mass was dissolved using 95% ethanol. The intensity of crystal violet was measured using a micro plate reader (SpectraMax i3x; Molecular Devices, Sunnyvale, CA, USA). Data are presented as the percent biofilm mass reduction in treated groups in relation to untreated wells.

[11] = system: MRSA USA300; assay: MIC against MRSA USA300 with and without 4% human serum albumin; assay type: cell-based, Staphylococcus aureus; details: Staphylococcus aureus, read-out: MIC against MRSA USA300
Experimental: as §1, with “The minimum inhibitory concentration (MIC) and the minimum bactericidal concentration (MBC) of rhodanine compounds 1 to 7 were determined against various Gram-positive and Gram-negative pathogens (S1 Table) following the guidelines of the Clinical and Laboratory Standards Institute (CLSI)[4]. The broth” for “The broth”
The antimicrobial activity of rhodanine compounds in the presence of 4% human serum albumin (HSA) was tested against MRSA USA300. The MICs of rhodanine compounds and control antibiotics (vancomycin and daptomycin) were tested as described in the methods above using tryptic soy broth spiked with 4% HSA. We also synthesized and tested three more compounds, ethyl ester and amide of rhodanine 2 (Rh 8 and Rh 10, respectively) and ethyl ester of rhodanine 3 (Rh 9) to determine the influence of a carboxyl group modification toward anti-MRSA activity and human serum albumin (HSA) binding.

## CN[C@H](CC(C)C)C(=O)N[C@H]1C(=O)N[C@@H](CC(N)=O)C(=O)N[C@H]2C(=O)N[C@H]3C(=O)N[C@H](C(=O)N[C@H](C(=O)O)c4cc(O)cc(O)c4-c4cc3ccc4O)[C@H](O)c3ccc(c(Cl)c3)Oc3cc2cc(c3O[C@@H]2O[C@H](CO)[C@@H](O)[C@H](O)[C@H]2O[C@H]2C[C@](C)(N)[C@H](O)[C@H](C)O2)Oc2ccc(cc2Cl)[C@H]1O [Vancomycin, vancomycin hydrochloride, reference compound]
[1]
  MIC: > 64 µM
[1]; E. faecium E417 HM-965
  MIC: > 64/— μM
[1]; E. faecium E1071 NR-28978
  MIC: > 64/— μM
[1]; E. faecium HM 968 Strain ERV102
  MIC: > 64/— μM
[1]; E. faecium NR31914 Strain E0120
  MIC: > 64/— μM
[2]
  MIC50: < 0.5 µM
  MIC90: < 0.5 µM
[3]; C. difficile HM-88
  MIC: 0.5 µM
[3]; C. difficile HM-745
  MIC: 0.125 µM
[3]; C. difficile HM-746
  MIC: 0.25 µM
[3]; C. difficile Isolate-1 NR-13427
  MIC: 1 µM
[3]; C. difficile Toxigenic Strain P8 NR-32888
  MIC: 0.5 µM
[4]; B. cereus BAG1O-2 NR-28582
  MBC: < 0.5/< 0.5 μM
  MIC: < 0.5/< 0.5 μM
[4]; B. cereus BAG1X1-1 NR-28575
  MBC: < 0.5/< 0.5 μM
  MIC: < 0.5/< 0.5 μM
[4]; B. cereus G9241 NR-9564
  MBC: < 0.5/< 0.5 μM
  MIC: < 0.5/< 0.5 μM
[4]; B. cereus VD014 NR-22141
  MBC: < 0.5/< 0.5 μM
  MIC: < 0.5/< 0.5 μM
[4]; B. cereus VD115 NR-22148
  MBC: < 0.5/< 0.5 μM
  MIC: < 0.5/< 0.5 μM
[4]; B. cereus VD148 NR-22150
  MBC: < 0.5/< 0.5 μM
  MIC: < 0.5/< 0.5 μM
[4]; Bacillus cereus, B. cereus BAG1X2-1 NR-28578, read-out: MBC
  MBC: < 0.5 µM
[4]; Bacillus cereus, B. cereus BAG1X2-1 NR-28578, read-out: MIC
  MIC: < 0.5 µM
[4]; Bacillus cereus, NRS201, B. cereus NRS 201 NR-2488, read-out: MBC
  MBC: < 0.5 µM
[4]; Bacillus cereus, NRS201, B. cereus NRS 201 NR-2488, read-out: MIC
  MIC: < 0.5 µM
[5]
  MBC: > 64 µM
  MIC50: > 64 µM
  MIC90: > 64 µM
[5]; VRSA 1
  MIC: > 64 µM
[5]; VRSA 2
  MIC: > 16 µM
[5]; VRSA 3a
  MIC: > 16 µM
[5]; VRSA 3b
  MIC: > 16 µM
[5]; VRSA 4
  MIC: > 64 µM
[5]; VRSA 5
  MIC: 64 µM
[5]; VRSA 6
  MIC: > 64 µM
[5]; VRSA 7
  MIC: > 64 µM
[5]; VRSA 8
  MIC: > 64 µM
[5]; VRSA 9
  MIC: > 64 µM
[5]; VRSA 10
  MIC: > 64 µM
[5]; VRSA 11a
  MIC: > 64 µM
[5]; VRSA 11b
  MIC: > 64 µM
[5]; VRSA 12
  MIC: > 64 µM
[5]; VRSA 13
  MIC: > 64 µM
[6]
  MIC50: > 64 µM
  MIC90: > 64 µM
[7]
  MBC: 16 µM
  MIC: 2 µM
[8]
  MIC: > 64 µM
[8]; E. faecalis ERV103 HM-934
  MIC: > 64/— μM
[8]; E. faecalis NR31972 Strain SF 28073
  MIC: > 64/— μM
[8]; E. faecalis S613 HM-334
  MIC: > 64/— μM
[8]; E. faecalis TX0104 HM-201
  MIC: > 64/— μM
[9]; NCIB9375
  MBC: 2 µM
  MIC: < 0.5 µM
[9]; NRS712
  MBC: < 0.5 µM
  MIC: < 0.5 µM
[10]
  biofilm mass reduction: not significantly decreased
[11]
  MIC: 0.5 µM
